{"source": "PubChem BioAssay AID1508591", "data": [{"settings": "rat; liver microsomes; pH 7.4; 15.0 min; 1.0 µM", "units": {"half-life": "min"}, "values": [{"smiles": "O=C(Nc1ccc(S(=O)(=O)Nc2nccs2)cc1)c1ccc2ccccc2c1", "half-life": "> 30"}, {"smiles": "Cc1cccc(NC(=S)N2CCN(c3cccc(C(F)(F)F)c3)CC2)c1", "half-life": 6}, {"smiles": "O=[N+]([O-])c1cccc(CNc2ccc(S(=O)(=O)Nc3nccs3)cc2)c1O", "half-life": "> 30"}, {"smiles": "Cc1ccc(S(=O)(=O)NCCC(=O)Nc2nc(-c3ccccc3)cs2)cc1", "half-life": 2.4}, {"smiles": "O=C(Nc1ccccc1C(=O)Nc1ccccc1C(=O)NCc1ccco1)c1ccco1", "half-life": 11}, {"smiles": "Cc1cccc(C(=O)N2CCc3cc(-c4nc(NC(=O)Cc5ccc6c(c5)OCO6)sc4C)ccc32)c1", "half-life": 4.4}, {"smiles": "COc1cccc(CNc2ccc(S(=O)(=O)Nc3cnc4ccccc4c3)cc2)c1O", "half-life": 13}, {"smiles": "Cc1ccc2c(c1)/C(=C\\c1cc(Cl)c(O)c(Cl)c1)C(=O)N2", "half-life": 22}, {"smiles": "O=C(Nc1ccc(Nc2ccncc2)cc1)c1ccc(Nc2ccnc3ccc([N+](=O)[O-])cc23)cc1[N+](=O)[O-]", "half-life": "> 30"}, {"smiles": "COc1ccc(N2Cc3cccc(C(=O)Nc4ccc(C(C)C)cc4)c3C2=O)cc1", "half-life": "> 30"}, {"smiles": "Cc1ccc(NC(=O)C(Cc2ccccc2)NS(=O)(=O)c2cccs2)cc1Cl", "note": "(stereo not drawn)", "half-life": 1.12}, {"smiles": "CN(C)C(=O)NC1CCC(CCN2CCN(c3cccc(Cl)c3Cl)CC2)CC1", "note": "(stereo not drawn)", "half-life": "> 30"}, {"smiles": "COC(=O)CNC(=O)c1nc(-c2ccc([S+](C)(=O)[O-])cc2)c2cnccn12", "half-life": "> 30"}, {"smiles": "NC(=O)C1CCN(c2nccc(-c3ccc4c(c3)OCCO4)n2)CC1", "half-life": 1.71}, {"smiles": "Cc1nn(Cc2ccc(Cl)cc2)c(C)c1NC(=O)c1cc(-c2ccc3c(c2)OCO3)on1", "half-life": 6.4}, {"smiles": "c1ccc(-c2ccc(CNc3nc(-c4ccccn4)nnc3-c3ccccc3)cc2)cc1", "half-life": 7.73}, {"smiles": "c1cc(OCCN2CCCCC2)cc(-c2n[nH]c3ccc(-c4ncn[nH]4)cc23)c1", "half-life": "> 30"}, {"smiles": "Cc1nc2ccc(NC(=O)c3cc(S(=O)(=O)N(C)c4ccccc4)ccc3Cl)cc2s1", "half-life": 1.55}, {"smiles": "Cc1ccc(S(=O)(=O)Nc2cccnc2C(=O)Nc2nc(-c3ccccc3)cs2)cc1", "half-life": 4.2}, {"smiles": "COc1ccc(S(=O)(=O)N2CCN(C(=O)C3COc4ccccc4O3)CC2)cc1", "note": "(stereo not drawn)", "half-life": 7.6}, {"smiles": "COCCNS(=O)(=O)c1cc(-c2nn3c(C)nnc3c3ccccc23)ccc1C", "half-life": 4.77}, {"smiles": "Cc1cccc(-c2[nH]c(C(C)(C)C)nc2-c2ccc3nccnc3c2)n1", "half-life": "> 30"}, {"smiles": "CCOc1ccc(CCNC(=O)c2cc3ccccc3o2)cc1OCC", "half-life": 1.6}, {"smiles": "Cc1ccc(NS(=O)(=O)c2cccc(C(=O)Nc3nc(-c4ccccc4)cs3)c2)cc1", "half-life": 6.7}, {"smiles": "COc1cc(NS(=O)(=O)c2ccc(C)cc2)cc(C(=O)Nc2nc(-c3ccccc3)cs2)c1", "half-life": 13}, {"smiles": "CCOc1ccccc1CNS(=O)(=O)c1ccc(-c2cnc(C3CC3)o2)cc1", "half-life": 1.64}, {"smiles": "Cc1ccccc1-c1nc(NCc2cccs2)c2ccccc2n1", "half-life": 2.74}, {"smiles": "Fc1ccc(Nc2nc(-c3ccncc3F)nc3ccccc23)cc1F", "half-life": 20}, {"smiles": "CCCCn1cc2c(c1-c1ccc(Br)cc1)c(=O)n(C)c(=O)n2C", "half-life": 7.68}, {"smiles": "Fc1ccc(CNc2cc3c(cn2)CN(Cc2ccncc2)CCN3)cc1", "half-life": 15.9}, {"smiles": "COc1ccnc(NC(=S)N2CCN(c3cccc(C(F)(F)F)c3)CC2)c1", "half-life": "> 30"}, {"smiles": "Fc1cccc(CN2CCNc3cc(Nc4ccccc4)ncc3C2)c1", "half-life": 1.14}, {"smiles": "COC[C@@H]1CN(C(=O)c2n[nH]c3ccccc23)C[C@H]1c1nc(C)no1", "half-life": "> 30"}, {"smiles": "Cc1ccc(S(=O)(=O)Nc2cc(Cl)c(Cl)cc2C(=O)Nc2nc(-c3ccccc3)cs2)cc1", "half-life": 13}, {"smiles": "O=[S+]([O-])(Nc1nccs1)c1ccc(NCc2ccc(Cl)c(Cl)c2)cc1", "half-life": 24}, {"smiles": "COCC(C)Nc1ncnc2c1cnn2-c1ccc(C)c(C)c1", "note": "(stereo not drawn)", "half-life": 23.7}, {"smiles": "CSc1ncc(Cl)c(C(=O)Nc2c(C)cccc2C)n1", "half-life": 5.48}, {"smiles": "COc1cccc(CNc2ccc(S(=O)(=O)Nc3cccc4ccncc34)cc2)c1O", "half-life": 10}, {"smiles": "O=[S+]([O-])(Nc1ccc(N2CCNCC2)cc1)c1ccc(NCc2ccc(Cl)cc2O)cc1", "half-life": "> 30"}, {"smiles": "Cc1ccnc(NC(=S)N2CCN(c3ccc(N)cc3)CC2)c1", "half-life": "> 30"}, {"smiles": "CN(C(=O)CNC(=O)c1cc(F)ccc1OCC(=O)Nc1ccc(I)cc1)c1ccc(F)cc1", "half-life": 1.74}, {"smiles": "CCS(=O)(=O)c1nc(-c2ccc(Cl)cc2)cc(C(F)(F)F)n1", "half-life": 5.7}, {"smiles": "Nc1nc2c(s1)C(c1ccc(Br)cc1)CC(=O)N2", "note": "(stereo not drawn)", "half-life": 23.8}, {"smiles": "COC(=O)Nc1nc2ccc(Sc3ccccc3)cc2[nH]1", "half-life": 18.4}, {"smiles": "CN1CCN(c2ccc(Nc3c4ccccc4nc4ccccc34)cc2)CC1", "half-life": 1.72}, {"smiles": "C[S+](=O)([O-])c1ccc(-c2nc(C(=O)NCc3cccnc3)n3ccccc23)cc1", "half-life": "> 30"}, {"smiles": "CCN1C(=O)c2ccccc2S(=O)c2ccc(NC(=O)Cc3ccc(OC)cc3)cc21", "note": "(stereo not drawn)", "half-life": 6.1}, {"smiles": "O=C(NC1CCCc2c1cnn2-c1ccc(F)cc1F)c1ccccc1", "note": "(stereo not drawn)", "half-life": "> 30"}, {"smiles": "COc1ccc(Nc2ncnc3c2cnn3-c2ccc(C)cc2)cc1Cl", "half-life": "> 30"}, {"smiles": "CCOc1ccc(NC(=O)c2nc(S(=O)(=O)Cc3ccccc3F)ncc2Cl)cc1", "half-life": 1.43}, {"smiles": "Cc1c(Cl)cccc1-n1ncc(C(=O)Nc2ccc(Br)cc2F)c1C1CCNCC1", "half-life": 9.8}, {"smiles": "O=C(O)c1ccnc2cc(C(OCCN3CCCCC3)c3ccccc3Cl)[nH]c12", "note": "(stereo not drawn)", "half-life": "> 30"}, {"smiles": "O=S(=O)(Nc1nccs1)c1ccc(NCc2cccc(Cl)c2Cl)cc1", "half-life": 25}, {"smiles": "COc1cccc(NC(=S)N2CCN(c3cccc(C(F)(F)F)c3)CC2)n1", "half-life": 17.6}, {"smiles": "c1cn2cc(-c3ccc4cn[nH]c4c3)nc(Nc3ccc(N4CCOCC4)cc3)c2n1", "half-life": 24.9}, {"smiles": "O=C(NC1CC1)C1CCCN1C(=O)c1cccc(-c2ccccn2)c1", "note": "(stereo not drawn)", "half-life": "> 30"}, {"smiles": "CCOc1ccc(CCNC(=O)c2cc3sccc3n2CCN(C)C)cc1OCC", "half-life": 1.6}, {"smiles": "O=[N+]([O-])c1ccc(/C=N/n2c(CO)nc3ccccc32)s1", "half-life": 21}, {"smiles": "O=C1Nc2ccccc2/C1=C\\c1cc(Br)c(O)c(Br)c1", "half-life": 26}, {"smiles": "COC(=O)C1=C(C)NC(C)=C(C(=O)O[C@@H]2CCCN(Cc3ccccc3)C2)[C@@H]1c1cccc([N+](=O)[O-])c1", "half-life": 1.3}, {"smiles": "CN(Cc1ccccc1)C(=O)c1ccc(S(=O)(=O)Nc2ccccc2)cc1", "half-life": 1.64}, {"smiles": "COc1cccc(CNc2ccc(S(=O)(=O)Nc3nccs3)cc2)c1", "half-life": 15}, {"smiles": "Nc1nc(N)c2cc(Sc3ccc4ccccc4c3)ccc2n1", "half-life": "> 30"}, {"smiles": "CCOC(=O)c1nnc(N[S+](=O)([O-])c2ccc(NC(=O)Cc3ccc(Cl)c(Cl)c3)cc2)s1", "half-life": 6}, {"smiles": "CSc1ccccc1-c1ccc(Nc2nc(-c3ccncc3)nc3ccccc23)cc1F", "half-life": 5.1}, {"smiles": "COc1ccc(NC(=O)C23CC4CC(CC(C4)C2)C3)cc1[S+](=O)([O-])Nc1ccc(Br)cc1", "half-life": 5}, {"smiles": "CC(C)c1cc(C(=O)N2CC[C@@H](NC(=O)C3CC3)C2)n[nH]1", "half-life": "> 30"}, {"smiles": "c1ccc2c(NC3CCCCC3)nc(-c3ccncc3)nc2c1", "half-life": 10}, {"smiles": "COc1ccc(Cn2c(C(=O)O)c(CNCc3ccco3)c3ccc(C)cc32)cc1", "half-life": "> 30"}, {"smiles": "Fc1cc(Nc2nc(-c3ccncc3)nc3ccccc23)ccc1-c1cccc(C(F)(F)F)c1", "half-life": "> 30"}, {"smiles": "Clc1ccc(-c2nc(-c3ccc(Br)o3)no2)c(Cl)c1", "half-life": 13}, {"smiles": "COc1cccc(CNc2ccc(S(=O)(=O)Nc3nc4ccccc4s3)cc2)c1O", "half-life": "> 30"}, {"smiles": "Cc1c(C(=O)NN2CCCCC2)nn(-c2ccc(Cl)cc2Cl)c1-c1ccc(Cl)cc1", "half-life": 5.9}, {"smiles": "CS(=O)(=O)c1ccccc1-c1csc(N2CCC(C(N)=O)CC2)n1", "half-life": "> 30"}, {"smiles": "CN1C(=O)c2ccccc2[S@](=O)c2ccc(C(=O)NCCN3CCCC3)cc21", "half-life": "> 30"}, {"smiles": "O=[S+]([O-])(Nc1ccccc1)c1ccc(NCc2cccc(C(F)(F)F)c2Cl)cc1", "half-life": 13}, {"smiles": "CCN(CC)[S+](=O)([O-])c1cc(NC(=O)c2[nH]c(C)c(C(C)=O)c2C)ccc1OC", "half-life": 4.7}, {"smiles": "O=C(Nc1ccccc1F)c1nc(S(=O)(=O)Cc2ccccc2F)ncc1Cl", "half-life": 1.49}, {"smiles": "CC1=NN(c2ccc(C(=O)O)cc2)C(=O)/C1=C/c1ccc(-c2cc(C)c(C)cc2[N+](=O)[O-])o1", "half-life": 22.2}, {"smiles": "O=C(Nc1nc(-c2ccccc2)cs1)c1ccncc1NS(=O)(=O)c1ccc(F)c(F)c1", "half-life": 11}, {"smiles": "Cc1ccc(C(=O)N2CCc3c(nc4cc(-c5ccccc5)[nH]n4c3=O)C2)cn1", "half-life": "> 30"}, {"smiles": "c1ccc2c(Nc3ccn[nH]3)nc(-c3ccncc3)nc2c1", "half-life": 13}, {"smiles": "CCOc1cc(-c2nccc3cc(OC)c(OC)cc23)cc(OCC)c1OCC", "half-life": 2.8}, {"smiles": "CCOc1ccc(CCNC(=O)c2cc3cccnc3n2Cc2cccc(C)c2)cc1OCC", "half-life": 1.7}, {"smiles": "COc1ccc2nc(C)cc(Nc3ccc(Cl)c(Cl)c3)c2c1", "half-life": 15.5}, {"smiles": "CC(=O)Nc1nc(C)c(-c2ccc(Cl)c(S(=O)(=O)NCCO)c2)s1", "half-life": "> 30"}, {"smiles": "O=C1CCCC2=C1C(c1[nH]ncc1Cl)N=C(Nc1nc3ccccc3o1)N2", "note": "(stereo not drawn)", "half-life": 13.5}, {"smiles": "Cc1nc2nc(NC(=O)c3ccc(C(C)(C)C)cc3)[nH]n2c(=O)c1Cl", "half-life": 21}, {"smiles": "O=C(Nc1ccc(S(=O)(=O)Nc2ncc(-c3ccccc3)s2)cc1)c1ccc2ccccc2c1", "half-life": "> 30"}, {"smiles": "CCc1ccc(NC(=O)c2cc3ncccn3n2)cc1", "half-life": 2.8}, {"smiles": "O=c1[nH]c(C2CCN(CC3CCCCC3)CC2)nn1Cc1ccccc1", "half-life": 25.3}, {"smiles": "Cc1cn2c(N)c(Cl)cc(C(=O)NCC3CCN(CC(C)C)CC3)c2n1", "half-life": "> 30"}, {"smiles": "COc1cccc(O)c1CNc1ccc(S(=O)(=O)Nc2nccs2)cc1", "half-life": 8.9}, {"smiles": "CCOC(=O)c1ccc(-c2ccc3ncnc(NCCc4cnc[nH]4)c3c2)o1", "half-life": "> 30"}, {"smiles": "Cc1ccc(-n2ncc3c(Nc4cccc(C(=O)O)c4)ncnc32)cc1", "half-life": "> 30"}, {"smiles": "CC1=Nc2cc(C(=O)NCc3ccccc3Cl)ccc2Sc2c(C)ccc(C)c21", "half-life": 1.96}, {"smiles": "CCN(C(=O)C(NS(=O)(=O)c1ccc(Br)s1)c1ccccc1)c1ccc(C)c(C)c1", "note": "(stereo not drawn)", "half-life": 0.99}, {"smiles": "CCC(CC)c1cc([C@H]2CN3CC[C@H]2C[C@@H]3CNS(=O)(=O)c2cccs2)nc(-c2ccncc2)n1", "half-life": "> 30"}, {"smiles": "CC1CCN(S(=O)(=O)c2ccc3c(ccc(=O)n3CC(=O)NCc3ccc(Cl)cc3)c2)CC1", "half-life": 1.45}, {"smiles": "COc1cccc(Nc2ncc(-c3cccc(N(C)C)c3)c3c2OCC3)c1", "half-life": 8.98}, {"smiles": "Cc1ccc(CN2CCOC[C@H]2c2ncc(-c3cccc(F)c3)[nH]2)cc1", "half-life": 2.16}, {"smiles": "O=C(NCC1CCN(Cc2cccc(Cl)c2)CC1)Nc1ccc(F)c(Cl)c1", "half-life": 22.7}, {"smiles": "N#Cc1ccccc1S(=O)(=O)Nc1cnccc1C(=O)Nc1nc(-c2ccccc2)cs1", "half-life": 7}]}]}
